Entries after “also recorded” stand apart in the source; their conditions may differ.
Assays:
[1] = test system: tyrosine phosphorylation in primary macrophages; assay: Tyrosine phosphorylation assay in primary macrophages (Western blot); type: cell-based, mouse
Method: Tyrosine Phosphorylation Assay: Tyrosine phosphorylation in macrophages or bone marrow-derived cells (BMDCs) of mice was assayed. Mouse primary macrophages were isolated from the peritoneum of 7-8 week old C57BL/6 female mice following thioglycollate stimulation. […] Mouse primary bone marrow-derived cells were isolated by flushing bone marrow out of the femur and tibia of female SJL mice using cold RPMI-1640. […] Cells were then washed, resuspended in the same buffer and depleted of B and T cells on a Midi-Macs separation unit through a LD or LS column (Miltenyi Biotech). […] The medium was replaced every other day. […] Proteins with phosphorylated tyrosine were then observed by Western blot, using a monoclonal anti-phosphotyrosine antibody. Western blotting for ERK1/2 or α-tubulin was performed as a control for protein loading.

IL12/23 p40 mRNA = assay: In vitro IL12/23 p40 mRNA expression assay; type: cell-based, mouse; conditions: CD11c+ dendritic cells, 20 μg/ml, 10 μg/ml peptidoglycan, 2-4 hours following administration
Method: In Vitro IL12/23 p40 mRNA Expression Assay:
Bone marrow-derived cell cultures were prepared as described hereinabove. On days 5-6 post culturing, the cell cultures were enriched for CD11c+ dendritic cells (>90%) with mouse CD11c microbeads over MS or LS columns (Miltenyi Biotech). CD11c+ dendritic cells were stimulated for 1, 2 and 3 hours with 10 μg/ml peptidoglycan alone or in the presence of 20 μg/ml of the tested compound added 1 hour before activation. RNA was extracted from cells using RNeasy mini kit (Qiagen, Valencia, Calif.). For cDNA preparation, 1 μg of RNA was combined with Oligo dT for 10 minutes at 70° C., 1st strand buffer. Dithiothreitol and dNTP and super-script reverse transcriptase (Invitrogen, Carlsbad, Calif.) were added for 50 minutes at 42° C. and the reaction was ended by incubation for an additional 15 minutes at 70° C. All real time PCR reactions were performed using LightCycler Taqman master (Roche Diagnostics, Mannheim, Germany) and run on the LightCycler machine (Roche). Ready sets of probe with primers were used for IL12/23 p40 and GAPDH assays (Applied Biosystems, assays #Mm01288992_m1 and Mm99999915_g1, respectively) with the latter served to normalize RNA levels. 20 μg/ml CI-201 and phosphatidylcholine (PC) were used as positive and negative controls respectively.

C57BL/6 mice = assay: In vivo MOG-induced experimental autoimmune encephalomyelitis (EAE) assay; parameters: species or system mouse; conditions: 4 mg/kg orally, 5 consecutive days starting 5 days before immunization
Method: In Vivo Myelin Oligodendrocyte Glycoprotein (MOG)-Induced Experimental Autoimmune Encephalomyelitis (EAE) Assay:
C57BL/6 mice were orally administered with the indicated amount of the tested compound in a final volume of 200 μl for 5 consecutive days starting 5 days before immunization.
For EAE induction, mice were immunized subcutaneously with an emulsion containing 1.5 mg/ml MOG peptide 35-55 ([…]) and 2.5 mg/ml CFA (complete Freund's adjuvant), 100 μl emulsion being injected into each flank. Pertussis toxin (500 ng in 500 μl PBS) was administered intraperitoneally immediately and 48 hours after the immunization.
Onset of EAE was evaluated by a mean clinical score.

IL12/23 p40 = assay: In vitro IL12/23p40 production assay; type: cell-based, mouse; conditions: bone marrow-derived cells, compound 1, 2.5, 5, 10 or 20 μg/ml for 1 hour, then 10 μg/ml peptidoglycan 24 hours, ELISA
Method: In Vitro IL12/23p40 Production Assay:
Bone marrow derived cells (BMDCs) were obtained from the femur and tibia of female C57BL mice, cultured, and seeded at a concentration of 10^6 cells/ml 5-6 days post-culturing, as described hereinabove for the tyrosine phosphorylation assay.
The tested compound was then added to the cells for 1 hour at a concentration of 1, 2.5, 5, 10 or 20 μg/ml. The cells were activated for IL12/23p40 production by incubation for 24 hours with 10 μg/ml peptidoglycan (PGN). Cytokine production from the supernatant was measured by ELISA. Activated cells without the tested compound were used as the control.

[2] = test system: mouse peritoneal macrophages; assay: In vitro toxicity assay; type: cell-based
Method: Thioglycollate-elicited mouse peritoneal macrophages were washed, counted and seeded (2×10^5 to 3×10^5 cells per well in 24-well plates) in triplicate wells in medium containing RPMI-1640, L-glutamine, 10% FBS and antibiotics (penicillin/streptomycin). After a recovery period of 24 hours, the tested compound (or controls) was added to the cell medium at doses of 2, 10, 20, 50, 100 or 150 μg/ml, keeping the added volume equal in all treatments by complementing the volume with solvent.
Following addition of the compounds, the cells were incubated for an additional 24 hours, after which the cells were washed, fixed with a solution of 10% methanol/10% acetic acid and stained with crystal violet (0.4% in 20% ethanol). Cell numbers were measured by determining optical density at 595 nm. Cells incubated with vehicle (PBS with 1% ethanol) were used as a control, to which cell numbers in treated samples were normalized.
Data are presented as mean±standard deviation. Statistical significance relative to vehicle-treated cells was calculated using a student's t-test, with p-values of less than 0.05 being considered as indicating statistical significance.

DBA/1 male mice = assay: In vivo collagen-induced arthritis (CIA) assay; parameters: species or system mouse
Method: In Vivo Collagen-Induced Arthritis (CIA) Assay:
DBA/1 male mice were immunized to induce arthritis by a collagen injection containing complete Freund's adjuvant (CFA) in the base of the tail (day 0) and a booster shot in the flank (day 21). Mice were followed for arthritis development until day 36. Administration by gavage of the tested compound and control substances began on day 22 and was carried out on a daily basis (6 times per week).
Onset of arthritis was evaluated by an arthritis clinical score.

LDL-RD male mice = assay: In vivo atherosclerotic lesion assay, LDL-RD mice; conditions: 1 mg/mouse (60 mg/kg) orally, 5 treatments every other day, western diet 5 weeks, aortic sinus
Method: (§1) In Vivo Atherosclerotic Lesion Assay:
12-16-week old LDL-RD male mice were orally administered with 0.2 ml of PBS or PBS with an indicated amount of the tested compound, once a day, every other day, for 5 treatments. The mice were challenged with western diet for 5 weeks and then sacrificed.
(§2) The quantification of atherosclerotic lesions was done by calculating the lesion size in the aortic sinus as previously described [Paigen et al., Quantitative assessment of atherosclerotic lesions in mice. Atherosclerosis 1987; 68:231-240] with a few modifications. Briefly, the heart and the aorta were removed from the animals, and the peripheral fat was cleaned carefully. The hearts were embedded in Optimal Cutting Temperature (OCT) gel and frozen. Aortic sinus lesion was determined from 3-8 Oil red O-stained serial sections (10 μm thick), throughout the aortic sinus (400 μm). The lesion area was calculated using a computer analyzing method (Image Pro Plus software [version 4.5.1.29], Medical Cybernetics Corporation).

ApoE KO mice = assay: In vivo atherosclerotic lesion assay, ApoE KO mice; conditions: 1 mg/mouse (40 mg/kg) orally, 5 treatments every other day, sacrificed by the end of 8 weeks, aortic sinus
Method: as §1
Alternatively, 14-16-week old ApoE KO mouse were orally administered with 0.2 ml of PBS or PBS with an indicated amount of the tested compound, once a day, every other day, for 5 treatments, and sacrificed by the end of 8 weeks.
as §2

For CCCCCCCCCCCCCCCCOC[C@H](COP(=O)([O-])OCC[N+](C)(C)C)OCCCCC(=O)O [CI-201, 1-hexadecyl-2-(4-carboxy)butyl-sn-glycero-3-phosphocholine, reference compound], which phosphotyrosine levels ([1]; 20 ng/ml) is on record?
The phosphotyrosine levels was “reduction”.

And the phosphotyrosine levels ([1]; 10 μg/ml, 10 minutes)?
Its phosphotyrosine levels is “caused an increase in phosphotyrosine levels”.

What about the phosphotyrosine levels ([1]; 20 μg/ml, 10 minutes) of the same molecule?
Its phosphotyrosine levels is “caused a decrease in phosphotyrosine levels; also recorded: caused a reduction in phosphotyrosine levels”.

And the “IL12/23 p40 mRNA expression” value (IL12/23 p40 mRNA)?
Its value is “inhibition by CI-202 was comparable to the inhibition by CI-201”.

How did the phosphotyrosine levels ([1]; 10 μg/ml, 10 minutes) turn out when CCCCCCCCCCCCCCCCOCC(COP(=O)(O)OCCN)OCCCCC(=O)O (stereo not drawn) [CI-202, 1-Hexadecyl-2-(4-carboxy)butyl-glycero-3-phosphoethanolamine] was run?
The phosphotyrosine levels was “induction of tyrosine phosphorylation”.

What about the phosphotyrosine levels ([1]; 20 μg/ml, 10 minutes) of the same molecule?
Its phosphotyrosine levels is “reduction in phosphotyrosine levels”.

And the “development of MOG-induced EAE (mean clinical score)” value (C57BL/6 mice)?
Its value is “delayed disease onset and reduced clinical manifestation of EAE”.

And the “production of IL12/23 p40” value (IL12/23 p40)?
The value was “inhibited production of IL12/23 p40 by bone marrow-derived cells in a dose-dependent manner”.

And the “IL12/23 p40 mRNA expression” value (IL12/23 p40 mRNA)?
The value was “inhibited IL12/23 p40 mRNA expression during the whole tested time period”.

And the “dose at which (significant) toxicity was detected” value ([2]; mouse, 24 h)?
Its value is “above 50 μg/ml”.

What about the “decrease of peak arthritis clinical score relative to the control mice” value (DBA/1 male mice; 0.4 mg/kg by gavage daily from day 22) of the same molecule?
The value was 42%.

What about the “arthritis severity (arthritis clinical score)” value (DBA/1 male mice; 0.4 mg/kg by gavage daily from day 22, followed until day 36) of the same molecule?
The value was “significantly decreased arthritis severity throughout the study period”.

With CCCCCCCCCCCCCCCCOC[C@H](COP(=O)([O-])OCC[N+](C)(C)C)OCCCCC(O)CO (stereo partly drawn) [di-OH, 1-Hexadecyl-2-(5,6-dihydroxy)hexanyl-glycero-3-phosphocholine] as the molecule, how does the “decrease of atherosclerotic lesion area as compared to the control (PBS)” value (LDL-RD male mice) read?
Its value is 25%.

And the “dose at which (significant) toxicity was detected” value ([2]; peritoneal macrophages, 24 hours, doses 2-150 μg/ml)?
Its value is at least 20 µg/mL.

CCCCCCCCCCCCCCCCOCC(COP(=O)([O-])OCC[N+](C)(C)C)OCCCCC(OC)OC (stereo not drawn) [diMeAc, 1-hexadecyl-2-(5′,5′-dimethoxypentyl)-glycero-3-phosphocholine] was tested. Which “decrease of atherosclerotic lesion area as compared to the control (PBS)” value (ApoE KO mice) did it give?
Its value is 23%.

— patent US9206206B2, “Oxidized lipid compounds and uses thereof” (Vascular Biogenics Ltd., priority 2008, dated 2015)
